Measured values as given in ChEMBL document CHEMBL1201862, “PubChem BioAssay data set” (2004).
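Briefly, cells in 96-well plates were exposed to five compound concentrations for 48 h, and endpoints were estimated by linear interpolation. At the GI50, growth is halved.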 Calls of active or inactive are those of the source. Cut-off read from the data, not from the text of the source: active = GI50 up to about 1.1 µM and inactive = higher.

Experiments:
Experiment in all cases: NCI anticancer screen, dose series, 48 h
PC-3 = test system: PC-3
CAKI-1 = test system: CAKI-1
SW-620 = test system: SW-620
SK-OV-3 = test system: SK-OV-3
M14 = test system: M14
LOX IMVI = test system: LOX IMVI
ACHN = test system: ACHN
Hs-578T = test system: Hs-578T
TK-10 = test system: TK-10
SF-268 = test system: SF-268
SNB-75 = test system: SNB-75
SR = test system: SR
786-0 = test system: 786-0
HT-29 = test system: HT-29
HCT-15 = test system: HCT-15
SNB-19 = test system: SNB-19
MDA-MB-231 = test system: MDA-MB-231
UACC-62 = test system: UACC-62
NCI-H460 = test system: NCI-H460
SN12C = test system: SN12C

SMILES | GI50 (PC-3) | GI50 (CAKI-1) | GI50 (SW-620) | GI50 (SK-OV-3) | GI50 (M14) | GI50 (LOX IMVI) | GI50 (ACHN) | GI50 (Hs-578T) | GI50 (TK-10) | GI50 (SF-268) | GI50 (SNB-75) | GI50 (SR) | GI50 (786-0) | GI50 (HT-29) | GI50 (HCT-15) | GI50 (SNB-19) | GI50 (MDA-MB-231) | GI50 (UACC-62) | GI50 (NCI-H460) | GI50 (SN12C)
CC(=O)Nc1ccc(Cc2ccc3nc(O)cc(C)c3c2)cc1 | 50.5 µM (inactive) | 63.5 µM (inactive) | > 100 µM (inactive) | 87.3 µM (inactive) | > 100 µM (inactive) | > 100 µM (inactive) | 50.8 µM (inactive) | 85.1 µM (inactive) | 40.5 µM (inactive) | > 100 µM (inactive) | 10.3 µM (inactive) | > 100 µM (inactive) | 24.3 µM (inactive) | 50.6 µM (inactive) | > 100 µM | 63.5 µM (inactive) | 28.8 µM (inactive) | 31 µM (inactive) | 62.1 µM (inactive) | 64.6 µM (inactive)
CN1CCCN(C)C1c1cc([N+](=O)[O-])ccc1O | 23.6 µM (inactive) | > 100 µM (inactive) | 70.6 µM (inactive) | 34.1 µM (inactive) | 19.1 µM (inactive) | 19.4 µM (inactive) | 20.9 µM (inactive) | 26.1 µM (inactive) | 56.1 µM (inactive) | 34.2 µM (inactive) | 31.1 µM (inactive) | 21.6 µM (inactive) | 33 µM (inactive) | 33.8 µM (inactive) | 43.6 µM | 30.8 µM (inactive) | 24.9 µM (inactive) | 16.6 µM (inactive) | 30.1 µM (inactive) | 31.6 µM (inactive)
Cc1ccc(S(=O)(=O)n2ccn3c(=O)cc(C)nc23)cc1 | > 10 µM (inactive) | > 10 µM (inactive) | > 10 µM (inactive) | > 10 µM (inactive) | > 10 µM (inactive) | > 10 µM (inactive) | > 10 µM (inactive) | 8.59 µM (inactive) | > 10 µM (inactive) | > 10 µM (inactive) | > 10 µM (inactive) | > 10 µM (inactive) | > 10 µM (inactive) | > 10 µM (inactive) | > 10 µM | > 10 µM (inactive) | > 10 µM (inactive) | > 10 µM (inactive) | > 10 µM (inactive) | > 10 µM (inactive)
CC12CCC(C(Br)(Br)C1=O)C2(C)C (stereo not given) | 1.07 µM (active) | 1.8 µM (inactive) | < 0.0476 µM (active) | 1.51 µM (inactive) | 0.125 µM (active) | 0.611 µM (active) | 0.553 µM (active) | 0.251 µM (active) | 2.09 µM (inactive) | 0.0989 µM (active) | 0.711 µM (active) | < 0.01 µM (active) | 0.0545 µM (active) | 0.228 µM (active) | 0.164 µM | 9.62 µM (inactive) | 0.104 µM (active) | 0.682 µM (active) | 4.05 µM (inactive) | 0.904 µM (active)
OC(c1cc(-c2ccccc2)nc2c1ccc1ccccc12)C1CCCCN1 (stereo not given) | 1.71 µM (inactive) | 1.91 µM (inactive) | 1.78 µM (inactive) | 1.88 µM (inactive) | 1.73 µM (inactive) | 1.11 µM (active) | 1.83 µM (inactive) | 1.51 µM (inactive) | 1.75 µM (inactive) | 1.43 µM (inactive) | 1.98 µM (inactive) | 1.18 µM (inactive) | 1.64 µM (inactive) | 1.68 µM (inactive) | 2.12 µM | 1.82 µM (inactive) | 1.79 µM (inactive) | 1.85 µM (inactive) | 1.79 µM (inactive) | 1.62 µM (inactive)
CC(=O)CCCCn1c(=O)c2c(nc(Br)n2C)n(C)c1=O | > 100 µM (inactive) | 1.82 µM (inactive) | > 100 µM (inactive) | > 100 µM (inactive) | > 100 µM (inactive) | > 100 µM (inactive) | > 100 µM (inactive) | > 100 µM (inactive) | > 100 µM (inactive) | > 100 µM (inactive) | > 100 µM (inactive) | > 100 µM (inactive) | > 100 µM (inactive) | > 100 µM (inactive) | > 100 µM | > 100 µM (inactive) | > 100 µM (inactive) | > 100 µM (inactive) | > 100 µM (inactive) | > 100 µM (inactive)
CCOC(=O)c1c(-c2ccc(Cl)cc2)c(C#N)c(=S)n(C2OC(COC(C)=O)C(OC(C)=O)C(OC(C)=O)C2OC(C)=O)c1-c1ccccc1 (stereo not given) | > 100 µM (inactive) | > 100 µM (inactive) | > 100 µM (inactive) | > 100 µM (inactive) | 57.5 µM (inactive) | > 100 µM (inactive) | > 100 µM (inactive) | > 100 µM (inactive) | > 100 µM (inactive) | > 100 µM (inactive) | 21.6 µM (inactive) | > 100 µM (inactive) | > 100 µM (inactive) | > 100 µM (inactive) | > 100 µM | > 100 µM (inactive) | > 100 µM (inactive) | > 100 µM (inactive) | > 100 µM (inactive) | > 100 µM (inactive)
O=C1/C(=C/c2ccncc2)C(n2cccc2)c2c(Br)sc(Br)c21 (stereo not given) | 4.41 µM (inactive) | 3.26 µM (inactive) | 1.57 µM (inactive) | 7.78 µM (inactive) | 0.263 µM (active) | 1.93 µM (inactive) | 4.95 µM (inactive) | 2.77 µM (inactive) | 4.2 µM (inactive) | 2.99 µM (inactive) | 3.53 µM (inactive) | 2.58 µM (inactive) | 3.41 µM (inactive) | 4.82 µM (inactive) | 2.85 µM | 15.5 µM (inactive) | 2.25 µM (inactive) | 2.94 µM (inactive) | 4.39 µM (inactive) | 4.39 µM (inactive)
O=[N+]([O-])c1ccc(Cl)cc1/C=N/C12CC3CC(CC(C3)C1)C2 | 35.9 µM (inactive) | > 100 µM (inactive) | 22 µM (inactive) | > 100 µM (inactive) | 45.5 µM (inactive) | 19.6 µM (inactive) | > 87.9 µM (inactive) | 51.8 µM (inactive) | > 100 µM (inactive) | 50.2 µM (inactive) | > 68.1 µM (inactive) | 7.03 µM (inactive) | 41.1 µM (inactive) | 30.6 µM (inactive) | 25.6 µM | 59.6 µM (inactive) | 40.3 µM (inactive) | 30.6 µM (inactive) | > 74 µM (inactive) | 51.6 µM (inactive)
